In paper PMC4151304 (European journal of medicinal chemistry, 2012):

Key:
[1] = target: T1, PRMT4/CARM1 (Mus musculus, UniProt Q9WVG6); experiment: Radioactive methyltransferase assay, CARM1; assay type: biochemical
T1 sequence (Q9WVG6 1-608): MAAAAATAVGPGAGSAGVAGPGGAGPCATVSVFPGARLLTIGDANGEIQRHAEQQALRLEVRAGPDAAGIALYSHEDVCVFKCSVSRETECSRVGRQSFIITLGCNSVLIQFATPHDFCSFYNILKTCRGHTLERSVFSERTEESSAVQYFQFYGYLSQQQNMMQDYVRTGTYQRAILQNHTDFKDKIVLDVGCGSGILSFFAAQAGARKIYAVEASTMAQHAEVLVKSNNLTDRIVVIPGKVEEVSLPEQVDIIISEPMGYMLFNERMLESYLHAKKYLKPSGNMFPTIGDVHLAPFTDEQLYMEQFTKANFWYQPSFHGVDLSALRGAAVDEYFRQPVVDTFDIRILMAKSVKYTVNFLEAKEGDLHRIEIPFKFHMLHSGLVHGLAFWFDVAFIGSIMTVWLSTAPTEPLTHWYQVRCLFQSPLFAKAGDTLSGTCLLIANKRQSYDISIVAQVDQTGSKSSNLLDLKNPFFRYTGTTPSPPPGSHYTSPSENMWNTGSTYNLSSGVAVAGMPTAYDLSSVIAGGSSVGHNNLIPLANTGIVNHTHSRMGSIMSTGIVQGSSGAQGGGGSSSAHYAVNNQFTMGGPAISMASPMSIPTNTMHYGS

[2] = target: T2, PRMT1 (Rattus norvegicus, UniProt Q63009); experiment: Dialysis experiment and time-dependent inhibition; assay type: biochemical; details: dialysis and time-dependent inhibition (0, 1.5, 2.5, 4.0 μM)
T2 sequence (Q63009 whole entry): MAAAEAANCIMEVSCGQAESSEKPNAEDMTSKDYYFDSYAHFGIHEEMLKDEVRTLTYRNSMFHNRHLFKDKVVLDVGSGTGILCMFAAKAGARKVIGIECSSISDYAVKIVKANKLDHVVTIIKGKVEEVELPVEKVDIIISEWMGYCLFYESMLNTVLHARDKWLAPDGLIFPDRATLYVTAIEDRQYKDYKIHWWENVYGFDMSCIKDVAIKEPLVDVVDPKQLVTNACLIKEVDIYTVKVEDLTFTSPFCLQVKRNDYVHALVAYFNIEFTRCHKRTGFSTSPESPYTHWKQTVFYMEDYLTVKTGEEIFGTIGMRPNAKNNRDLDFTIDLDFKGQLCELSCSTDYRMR

[3] = target: T2, PRMT1; experiment: Radioactive methyltransferase assay, PRMT1; assay type: biochemical; details: for IC50: IC50, His6x-PRMT1 0.05 μM, 2 μM H4(1-20), 5 μM [14C]-SAM, 30°C
[4] = target: PRMT1 Y152A (Rattus norvegicus, UniProt Q63009, Y152A); experiment: Radioactive methyltransferase assay, PRMT1 mutant Y152A; assay type: biochemical; details: 4 μM inhibitor, 2 μM H4-20, 5 μM [14C]AdoMet
Chain of PRMT1 Y152A (Q63009 whole entry Y152A): as the sequence (Q63009 whole entry) above, with Y152A counted along it

[5] = tested on: HeLa cells; experiment: Cell cycle assay by flow cytometry; assay type: cell-based; details: 48 h of treatment at 2.5 and 5 μM (data not shown)

SMILES	IC50 [3]	further results
CCn1/c(=C\C=C\C2=[N+](CC)c3cccc4cccc2c34)c2cccc3cccc1c32.[I-] [compound 11, 1-ethyl-2-[3-(1-ethylbenz[c,d]indol-2(1H)-ylidene)-1-propen-1-yl]-iodide]		IC50 [1]: ~100 µM; reversible vs irreversible inhibition [2]: reversible; kinetic pattern of inhibition ([3]; steady-state kinetics, with regard to both H4 and AdoMet substrates): noncompetitive inhibitor; inhibition of Y152A PRMT1 compared with wt-PRMT1 [4]: same potency as is for wt-PRMT1; Sub-G1 population, indicative of apoptosis [5]: appearance of a hypodiploid peak (Sub-G1) was observed
CCCCn1/c(=C\C=C\C2=[N+](CCCC)c3cccc4cccc2c34)c2cccc3cccc1c32 [compound 12, 1-butyl-2-[3-(1-butyllbenz[c,d]indol-2(1H)-ylidene)-1-propen-1-yl]-iodide]	12 ± 0.5 µM	
C(/C=C/C1=[N+](CCCc2ccccc2)c2cccc3cccc1c23)=c1\c2cccc3cccc(c32)n1CCCc1ccccc1 [compound 13, 1-phenylpropyl-2-[3-(1-phenylpropylbenz[c,d]indol-2(1H)-ylidene)-1-propen-1-yl]iodide]	15.5 ± 0.2 µM	
CCN1/C(=C\C=C\C2=[N+](CC)c3ccccc3C2(C)C)C(C)(C)c2ccccc21 [compound 22]	284 ± 3.5 µM	
CCN1/C(=C/C=C/C2=[N+](CC)c3ccc4ccccc4c3C2(C)C)C(C)(C)c2c1ccc1ccccc21 [compound 25]	20.3 ± 0.2 µM	
CCCCN1/C(=C\C=C\C2=[N+](CCCC)c3ccc4ccccc4c3C2(C)C)C(C)(C)c2c1ccc1ccccc21 [compound 26]	18 ± 0.5 µM	
CC1(C)C(/C=C/C=C2/N(CCCc3ccccc3)c3ccc4ccccc4c3C2(C)C)=[N+](CCCc2ccccc2)c2ccc3ccccc3c21 [compound 27]	14.3 ± 0.2 µM	
CC1(C)C(/C=C/C=C2/N(CCC[N+](C)(C)C)c3ccc(Br)cc3C2(C)C)=[N+](CCC[N+](C)(C)C)c2ccc(Br)cc21 [compound 29]	292 ± 40.1 µM	
